Ten compounds from patent US9655888B2, “Tricyclic alkene derivatives as HIV attachment inhibitors” (priority 2012, dated 2017) can be followed below.

The assay has as its system HIV-1 LAI envelope single-round infectious reporter virus. Kind of assay: Single-round infectious HIV-1 LAI luciferase reporter virus infection of MT2 cells. As to conditions: Human immunodeficiency virus 1, MT2, 72 h. The class given is cell-based. From the text:
• Virus production—Human embryonic Kidney cell line, 293T (HEK 293T), was propagated in Dulbecco's Modified Eagle Medium (Invitrogen, Carlsbad, Calif.) containing 10% fetal bovine serum (FBS, Sigma, St. Louis, Mo.). The human T-cell leukemia cell MT2 (AIDS Research and Reference Reagent Program, Cat. 237) was propagated in RPMI 1640 (Invitrogen, Carlsbad, Calif.) containing 10% fetal bovine serum (FBS, Hyclone, Logan, Utah) • Virus infection—Single-round infectious reporter virus was produced by co-transfecting HEK 293T cells with plasmide expressing the HIV-1 LAI envelope along with a plasmid containing an HIV-1 LAI proviral cDNA with the envelope gene replaced by a firefly luciferase reporter gene (Chen et al., Ref 41). Transfections were performed using lipofectAMINE PLUS reagent as described by the manufacturer (Invitrogen, Carlsbad, Calif.). Experimental Procedure • 1. MT2 cells were plated in black, 384 well plates at a cell density of 5×10^3 cells per well in 25 μl RPMI 1640 containing 10% FBS. • 2. Compound (diluted in dimethylsulfoxide and growth medium) was added to cells at 12.5 μl/well, so that the final assay concentration would be ≦50 nM. • 3. 12.5 μl of single-round infectious reporter virus in Dulbecco's Modified Eagle Medium was added to the plated cells and compound at an approximate multiplicity of infection (MOI) of 0.01, resulting in a final volume of 50 μl per well. • 4. Virus-infected cells were incubated at 37 degrees Celsius in a CO2 incubator and harvested 72 h after infection. • 5. Viral infection was monitored by measuring luciferase expression in the infected cells using a luciferase reporter gene assay kit (Steady-Glo, Promega, Madison, Wis.) as described by the manufacturer. Luciferase activity was then quantified by measuring luminescence using an EnVision Multilabel Plate Readers (PerkinElmer, Waltham, Mass.). • 6. The percent inhibition for each compound was calculated by quantifying the level of luciferase expression in cells infected in the presence of each compound as a percentage of that observed for cells infected in the absence of compound and subtracting such a determined value from 100. • 7. An EC50 provides a method for comparing the antiviral potency of the compounds of the invention. The effective concentration for fifty percent inhibition (EC50) was calculated with the Microsoft Excel Xlfit curve fitting software. For each compound, curves were generated from percent inhibition calculated at 10 different concentrations by using a four parameter logistic model (model 205). Table 1 is the key for the data in Table 2.
Background: Reporter assays use an easily measured gene product as a stand-in for the process of interest.

The mark [1] stands for this setting: read-out: EC50 Group from Table 1.

Like-named read-outs stand apart in the source and are kept apart here. Some results are limits rather than exact numbers.

One may read the EC50 as the midpoint of the concentration-response curve.

For the compound `COc1cnc(-n2cncn2)c2[nH]cc(C(=O)C(=O)N3CCC(=C4c5ccccc5CCc5ccccc54)CC3)c12` [Compound 1005], the half-maximal effective concentration (EC50) under setting [1] is less than 500 nM.
In the case of `O=C(C(=O)N1CCC(=C2c3ccccc3CCc3ccccc32)CC1)c1c[nH]c2ccccc12` [Compound 1003], the EC50 came to 692 nM. For the same compound, the EC50 under setting [1] was greater than 500 nM.
As for `O=C(C(=O)N1CCC(=C2c3ccccc3CCc3ccccc32)CC1)c1c[nH]c2c(Br)ccc(F)c12` [Compound 1007], the concentration for a half-maximal effect (EC50) under setting [1] was greater than 500 nM.
Turning to `COc1ccc(Br)c2[nH]cc(C(=O)C(=O)N3CCC(=C4c5ccccc5CCc5ccccc54)CC3)c12` [Compound 1006], the response was half-maximal at 95.3 nM (EC50). Also, the EC50 under setting [1] was less than 500 nM.
The corresponding values for `COc1cnc(-n2cnc(C)n2)c2[nH]cc(C(=O)C(=O)N3CCC(=C4c5ccccc5CCc5ccccc54)CC3)c12` [Compound 1009] are 3.72 nM and less than 500 nM.
The corresponding values for `COc1cnc(-n2cnc(C)n2)c2[nH]cc(C(=O)C(=O)N3CCC(=C4c5ccccc5C=Cc5ccccc54)CC3)c12` [Compound 1001] are 0.28 nM and less than 500 nM.
Consider `COc1cnc(-n2cnc(C)n2)c2[nH]cc(C(=O)C(=O)N3CCC(=C4c5ccc(Cl)cc5CCc5cccnc54)CC3)c12` [Compound 1010], for which, under setting [1], the EC50 was less than 500 nM.
Still for that read-out and setting: next, `COc1cnc(Cl)c2[nH]cc(C(=O)C(=O)N3CCC(=C4c5ccc(Cl)cc5CCc5cccnc54)CC3)c12` [Compound 1002]: less than 500 nM.
Regarding `COc1cnc(Cl)c2[nH]cc(C(=O)C(=O)N3CCC(=C4c5ccccc5CCc5ccccc54)CC3)c12` [Compound 1004], under setting [1], the EC50 was less than 500 nM.
`O=C(C(=O)N1CCC(=C2c3ccc(Cl)cc3CCc3cccnc32)CC1)c1c[nH]c2c(Br)ccc(F)c12` [Compound 1008]: under setting [1], the EC50 is greater than 500 nM.
